Results: patent US20200237909A1, “METHODS OF TREATING OR PREVENTING BREAST CANCER METASTASES USING ANTIBODIES TO JAGGED1 AND CHEMOTHERAPEUTIC AGENTS” (The Trustees of Princeton University, priority 2017, published 2020)

Assays:
[1] = tested on: MCF7, SCP28 and SUM1315-M1B1; assay: Bone metastatic seeding after cisplatin pre-treatment (IIA injection, BLI); assay type: in vivo, athymic nude mice; details: cisplatin one day before tumor cell injection, 4 days after injection
Procedure: FIG. 5. Chemotherapy induces Jagged1 expression in osteoblast lineage cells. (A) Jagged1 mRNA expression in osteoblast MC3T3-E1-Clone #4 osteoblast cells and mesenchymal stem cells (MSC), HPMECL endothelial cells (endo), RAW264.7 pre-osteoclast cells, and SCP28 and SUM1315-M1B1 breast tumor cells 48 hr post-treatment with 25 nM paclitaxel or 10 μM cisplatin. (B) Athymic nude mice were i.v. injected with PBS or cisplatin and euthanized 48 hr later. Hind limb bones were collected for IF staining against Alp (green) and Jagged1 (red). Nuclei were counter-stained with DAPI (blue). (C-E) Athymic nude mice were treated with either PBS or cisplatin on Day 0. One day after the pre-treatment, MCF7 (C), SUM1315-M1B1 (D) or SCP28 (E) cells were delivered locally to the hind limbs of these mice by IIA injection. BLI imaging and quantification of BLI signal at Day 4. (F) Mice from experiment in E were euthanized after BLI imaging at Day 4. Hind limbs were fixed and processed for IF imaging of GFP-expressing tumor cells (green) and ALP positive osteoblasts (red). Size bar: 80 μm. In A: n=3. *p<0.05 by Student's t-test. In C-E: n=5. *p<0.05 by Student's t-test. #: statistically insignificant.
To directly test the effect of increased Jagged1 expression in osteoblasts on bone metastasis seeding and progression, two models were utilized. […]

[2] = tested on: Jagged1 expression in osteoblast cells; assay: Jagged1/Alp immunostaining of hind limb bones after cisplatin; assay type: in vivo, nude mice; details: 48 hours after treatment
Procedure: FIG. 5. Chemotherapy induces Jagged1 expression in osteoblast lineage cells. (A) Jagged1 mRNA expression in osteoblast MC3T3-E1-Clone #4 osteoblast cells and mesenchymal stem cells (MSC), HPMECL endothelial cells (endo), RAW264.7 pre-osteoclast cells, and SCP28 and SUM1315-M1B1 breast tumor cells 48 hr post-treatment with 25 nM paclitaxel or 10 μM cisplatin. (B) Athymic nude mice were i.v. injected with PBS or cisplatin and euthanized 48 hr later. Hind limb bones were collected for IF staining against Alp (green) and Jagged1 (red). Nuclei were counter-stained with DAPI (blue). (C-E) Athymic nude mice were treated with either PBS or cisplatin on Day 0. […] BLI imaging and quantification of BLI signal at Day 4. […]
To confirm this finding in vivo, female nude mice were treated with either PBS or cisplatin. […] In the PBS control group, Jagged1-positive cells were rarely detected, and mostly co-localizing with ALP-positive osteoblasts.
Hindlimb bones were excised from mice at the end point of each experiment, immediately after the last BLI time point. […] For quantitative analysis of lesion area, a 10× objective was used to focus on the tumor region of interest and images were acquired using the AxioCamICc3 camera set to an exposure of around 100 ms. Osteoclast number was assessed as multinucleated TRAP+ cells and reported as number/field. […]

[3] = tested on: Notch downstream genes (human HES2, HEY1, HEY2); assay: Notch downstream gene expression in tumor cells co-cultured with MSC after chemotherapy; assay type: cell-based; details: co-culture tumor cells after chemotherapy
SCP28-Jagged1 cells = assay: SCP28-Jagged1 bone metastasis, late treatment with 15D11 and paclitaxel; assay type: in vivo, mice; details: in words
Procedure: To evaluate the combinatorial effect of 15D11 with conventional chemotherapy, we treated bone metastasis generated by SCP28-Jagged1 cells with 15D11 and paclitaxel, using the late treatment protocol (treatment initiated 1 week after IC injection) (FIG. 3A). […] Mice were treated with IgG (as negative control), 15D11, paclitaxel, or both, one week after IC injection of SCP28-Jagged1 to establish bone metastases.
For experimental bone metastasis, three models were used using intra-cardiac (IC), intra-iliac artery (IIA), and intra-tibia (i.t.) injection methods, as previously described (Andersen et al., 2003; Sethi et al., 2011; Wang et al., 2015). Bone metastasis burden was monitored by weekly BLI and X-ray imaging. At the experimental endpoint, mice were euthanized for bone histology analysis and half of the bone samples were used for μCT imaging and bone density quantification.
The initial treatment is either one day before tumor cell injection or one week after tumor cell injection as described in each experiment. For IgG or 15D11 antibody treatment, mice were i.p. injected at the dosing of 10 mg/kg, twice a week. […] For paclitaxel treatment, paclitaxol powder was first dissolved in 95% ethanol, sonicated and shaken overnight, before mixing 1:1 with cremophor (Sigma Catalog#:769193-1KG) to reach the final concentration of 20 mg/ml. […]

Row | SMILES | bone metastatic seeding (BLI) [1] | Jagged1 expression (immunostaining, Alp positive cells) [2] | Notch downstream genes HES2, HEY1, HEY2 [3] | tumor burden at the end point (SCP28-Jagged1 cells)
1 | N.N.[Cl][Pt][Cl] [cisplatin] | significant increase | much stronger Jagged1 expression | significantly upregulated | 
2 | CC(=O)O[C@H]1C(=O)[C@@]2(C)[C@H]([C@H](OC(=O)c3ccccc3)[C@]3(O)C[C@H](OC(=O)[C@H](O)[C@@H](NC(=O)c4ccccc4)c4ccccc4)C(C)=C1C3(C)C)[C@]1(OC(C)=O)CO[C@@H]1C[C@@H]2O [paclitaxel] |  |  |  | only a mild reduction of tumor burden
